In PMC6277434, “Discovery of a potent HMG-CoA reductase degrader that eliminates statin-induced reductase accumulation and lowers cholesterol” (Nature Communications, 2018):

Legend:
LXR signaling pathway = test: RT-qPCR of LXR target genes (SREBP-1c, ABCA1, ABCG8) in Huh-7 cells; format: cell-based, human; conditions: 16 h
Method: Cells were treated as described in corresponding figure legends, then total RNA was extracted from cells or mouse livers using TRI Reagent (T9424, Sigma-Aldrich). Equal amounts of RNA from cells or mice receiving the same treatment were pooled were used for cDNA synthesis with oligo dT and reverse transcriptase MLV (Promega). Gene expression was analyzed by quantitative real-time PCR on a Stratagene Mx30005PTM Q-PCR Systems. The primers used were listed in Supplementary Tables 2–4. […]
pathway. a-c Huh-7 cells were treated with indicated compounds for 16 h and then harvested for total RNA isolation and RT-qPCR. Cells treated with LXR agonist T0901317 w ere used as positive controls. The relative mRNA levels of SREBP -1c (a), ABCA1 (b) and ABCG8 (c) were quantified . GAPDH was the reference gene. The relative mRNA level in DMSO-treated cells was defined as 1. Data are from 3 independent experiments and presented as mean ± SD.
(1 picture or pasted object on this page, not shown here)

hERG potassium channel = hERG potassium channel (Homo sapiens, UniProt Q12809); test: hERG electrophysiology patch-clamp assay (CHO-hERG cells, QPatch); conditions: even at 40 μM
WT HMGCR = target: T1, WT HMGCR (Cricetulus griseus, UniProt P00347); test: Immunoblotting of overexpressed wild type HMGCR in Huh7 cells; format: cell-based; conditions: 1 µM lovastatin
T1 construct: expressed in transfected cells; host or cells: Huh7
T1 sequence (P00347 1-887): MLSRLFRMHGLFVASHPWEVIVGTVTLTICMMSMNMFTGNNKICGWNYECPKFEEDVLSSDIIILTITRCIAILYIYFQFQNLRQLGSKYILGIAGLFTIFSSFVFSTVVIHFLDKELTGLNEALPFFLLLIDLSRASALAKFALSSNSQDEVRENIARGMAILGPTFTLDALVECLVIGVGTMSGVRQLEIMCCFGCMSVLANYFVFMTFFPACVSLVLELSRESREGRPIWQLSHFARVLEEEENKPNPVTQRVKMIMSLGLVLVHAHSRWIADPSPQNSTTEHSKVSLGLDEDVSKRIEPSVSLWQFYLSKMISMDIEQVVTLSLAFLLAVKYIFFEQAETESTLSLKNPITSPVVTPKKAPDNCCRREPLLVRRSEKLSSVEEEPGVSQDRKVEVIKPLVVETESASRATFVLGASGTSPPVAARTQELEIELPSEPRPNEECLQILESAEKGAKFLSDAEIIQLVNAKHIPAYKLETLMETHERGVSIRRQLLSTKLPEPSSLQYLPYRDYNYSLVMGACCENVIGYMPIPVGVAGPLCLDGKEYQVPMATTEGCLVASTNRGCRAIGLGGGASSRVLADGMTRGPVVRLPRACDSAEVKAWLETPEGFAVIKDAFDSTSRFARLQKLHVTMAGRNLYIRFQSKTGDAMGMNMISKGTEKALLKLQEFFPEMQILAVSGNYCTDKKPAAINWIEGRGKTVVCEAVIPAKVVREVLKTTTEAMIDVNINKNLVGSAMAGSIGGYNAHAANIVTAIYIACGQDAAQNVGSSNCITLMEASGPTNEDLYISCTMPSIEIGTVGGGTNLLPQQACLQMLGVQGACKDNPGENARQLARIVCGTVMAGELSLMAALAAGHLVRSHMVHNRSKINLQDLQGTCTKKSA
Method: Cells were harvested and homogenized in the RIPA buffer (50 mM Tris-HCl, pH 8.0, 150 mM NaCl, 2 mM MgCl2, 1.5% NP-40, 0.1% SDS, and 0.5% sodium deoxycholate) supplemented with protease cocktail inhibitor, 10 μM MG-132, 10 μg ml^−1 leupeptin and 1 mM phenylmethylsulfonyl fluoride. The protein concentrations of lysates were determined using BCA method (Beyotime). Samples were mixed with the membrane protein solubilization buffer (62.5 mM Tris-HCl, pH 6.8, 15% SDS, 8 M urea, 10% glycerol, and 100 mM DTT) plus the 4× loading buffer (150 mM Tris-HCl, pH 6.8, 12% SDS, 30% glycerol, 6% 2-mercaptoethanol, and 0.02% bromophenol blue) and incubated for 30 min at 37 °C. Proteins were resolved by SDS-PAGE and transferred to nitrocellulose membranes (GE Healthcare). Immnoblots were blocked with 5% non-fat milk in TBS containing 0.075% Tween-20 (TBST) and probed with indicated antibodies overnight at 4 °C. After washing in TBST for five times, blots were incubated with HRP-conjugated secondary antibodies for 2 h at room temperature. Immunoreactivity was developed with Clarity Western ECL chemiluminescent substrates (170–5061, Bio-Rad). Western blot images were captured by Amersham Imager 600 (GE Healthcare), and integrated optical intensities of each band were quantified by Image-Pro Plus 6 software (Media Cybernetics). […]
RT-qPCR. Quantifications of the relative mRNA levels of indicated SREBP target […]

HMGCR = target: T2, HMGCR (Cricetulus griseus, UniProt P00347); test: Immunoblotting of HMGCR protein in SRD-13A (Scap-deficient CHO-7) cells; format: cell-based, Chinese hamster; conditions: for HMGCR protein level, mean: SRD-13A, 16 h
T2 construct: endogenous in cells; host or cells: CHO-7, CHG, SRD-13A, SRD-15
T2 sequence (P00347 1-887): T1 sequence (P00347 1-887)
Method: CHO-7 (Chinese hamster ovary cell, a clone of CHO-K1 cell line selected for growth in LPDS) and Huh7 (a human hepatocellular carcinoma cell line), SRD-13A (a Scap-deficient CHO-7 cell line) and SRD-15 (an Insig-1 and Insig-2-deficient CHO-7 cell line) were generous gifts from Russell Debose-Boyd at UT Southwestern Medical Center, USA. All cells were grown in a monolayer at 37 °C with 5% CO2. Huh7 cells were maintained in medium A supplemented with 10% FBS. CHO-7 and SRD-15 cells were maintained in medium B supplemented with 5% FBS. SRD-13A cells were maintained in medium B with 5% FBS, 5 μg ml^−1 cholesterol, 1 mM sodium mevalonate, 10 μM sodium oleate. No cell lines used in this study were found in the database of commonly misidentified cell lines that is maintained by ICLAC and NCBI Biosample. The cell lines have not been authenticated recently. No test for mycoplasma contamination was performed.
Cells were harvested and homogenized in the RIPA buffer (50 mM Tris-HCl, pH 8.0, 150 mM NaCl, 2 mM MgCl2, 1.5% NP-40, 0.1% SDS, and 0.5% sodium deoxycholate) supplemented with protease cocktail inhibitor, 10 μM MG-132, 10 μg ml^−1 leupeptin and 1 mM phenylmethylsulfonyl fluoride. The protein concentrations of lysates were determined using BCA method (Beyotime). Samples were mixed with the membrane protein solubilization buffer (62.5 mM Tris-HCl, pH 6.8, 15% SDS, 8 M urea, 10% glycerol, and 100 mM DTT) plus the 4× loading buffer (150 mM Tris-HCl, pH 6.8, 12% SDS, 30% glycerol, 6% 2-mercaptoethanol, and 0.02% bromophenol blue) and incubated for 30 min at 37 °C. Proteins were resolved by SDS-PAGE and transferred to nitrocellulose membranes (GE Healthcare). Immnoblots were blocked with 5% non-fat milk in TBS containing 0.075% Tween-20 (TBST) and probed with indicated antibodies overnight at 4 °C. After washing in TBST for five times, blots were incubated with HRP-conjugated secondary antibodies for 2 h at room temperature. Immunoreactivity was developed with Clarity Western ECL chemiluminescent substrates (170–5061, Bio-Rad). Western blot images were captured by Amersham Imager 600 (GE Healthcare), and integrated optical intensities of each band were quantified by Image-Pro Plus 6 software (Media Cybernetics). Uncropped blots are shown in Supplementary Figs. 9–13.

hERG potassium channel, sequence (Q12809 whole entry): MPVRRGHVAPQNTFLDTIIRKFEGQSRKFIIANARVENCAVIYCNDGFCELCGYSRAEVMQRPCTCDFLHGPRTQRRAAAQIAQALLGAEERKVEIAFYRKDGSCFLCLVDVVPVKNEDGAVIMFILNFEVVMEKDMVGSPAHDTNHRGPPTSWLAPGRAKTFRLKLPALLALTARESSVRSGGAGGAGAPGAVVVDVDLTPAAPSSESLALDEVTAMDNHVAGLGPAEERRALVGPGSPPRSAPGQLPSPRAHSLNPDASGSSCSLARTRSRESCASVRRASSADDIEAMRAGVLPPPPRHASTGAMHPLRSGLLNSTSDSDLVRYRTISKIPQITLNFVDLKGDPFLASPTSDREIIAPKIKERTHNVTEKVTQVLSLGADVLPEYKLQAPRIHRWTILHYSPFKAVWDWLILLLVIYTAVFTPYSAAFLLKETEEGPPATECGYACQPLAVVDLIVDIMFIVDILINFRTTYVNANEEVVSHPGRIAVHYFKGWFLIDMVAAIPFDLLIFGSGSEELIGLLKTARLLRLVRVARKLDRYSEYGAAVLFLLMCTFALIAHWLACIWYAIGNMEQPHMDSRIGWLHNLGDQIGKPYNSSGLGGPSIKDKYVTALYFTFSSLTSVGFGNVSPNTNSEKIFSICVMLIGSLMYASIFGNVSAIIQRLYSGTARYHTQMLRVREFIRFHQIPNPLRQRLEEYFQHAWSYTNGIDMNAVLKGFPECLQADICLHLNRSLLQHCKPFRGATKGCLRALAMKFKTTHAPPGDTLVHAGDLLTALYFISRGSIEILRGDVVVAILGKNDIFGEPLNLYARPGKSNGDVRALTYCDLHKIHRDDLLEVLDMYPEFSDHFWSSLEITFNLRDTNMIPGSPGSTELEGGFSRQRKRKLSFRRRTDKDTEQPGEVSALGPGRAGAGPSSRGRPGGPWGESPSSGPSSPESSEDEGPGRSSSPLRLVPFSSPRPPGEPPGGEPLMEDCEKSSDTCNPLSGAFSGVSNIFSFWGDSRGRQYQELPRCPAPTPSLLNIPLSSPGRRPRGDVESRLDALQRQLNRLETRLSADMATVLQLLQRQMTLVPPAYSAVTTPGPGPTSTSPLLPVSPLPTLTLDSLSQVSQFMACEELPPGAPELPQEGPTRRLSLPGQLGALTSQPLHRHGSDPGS

SMILES | expression of LXR target genes (SREBP-1c, ABCA1 and ABCG8) mRNA (LXR signaling pathway) | inhibition of hERG peak tail currents (hERG potassium channel) | elevation of overexpressed WT HMGCR protein (WT HMGCR) [fold] | increase of HMGCR protein (HMGCR; SRD-13A cells, lovastatin 16 h) [fold] | HMGCR protein level, mean (HMGCR; lovastatin 0.001 uM) | HMGCR protein level, mean (HMGCR; lovastatin 0.003 uM) | HMGCR protein level, mean (HMGCR; lovastatin 0.01 uM) | HMGCR protein level, mean (HMGCR; lovastatin 0.03 uM) | HMGCR protein level, mean (HMGCR; lovastatin 0.1 uM) | HMGCR protein level, mean (HMGCR; lovastatin 0.3 uM) | HMGCR protein level, mean (HMGCR; lovastatin 1 uM) | HMGCR protein level, mean (HMGCR; lovastatin 3 uM) | HMGCR protein level, mean (HMGCR; lovastatin 10 uM)
C=CCC(O)(CC=C)CCCC(C)C1CCC2C3C(O)C=C4C(C)(C)C(O)CCC4(C)C3CCC12C (stereo not shown) [Cmpd 81] | did not induce the expression | no inhibition effect |  |  |  |  |  |  |  |  |  |  | 
CC[C@H](C)C(=O)O[C@H]1C[C@@H](C)C=C2C=C[C@H](C)[C@H](CC[C@@H]3C[C@@H](O)CC(=O)O3)[C@H]21 [Lovastatin, lovastatin] |  |  | 6 | ≤ 8 | 0.9418 | 1.178 | 2.758 | 4.962 | 7.087 | 7.139 | 8.174 | 8.262 | 7.249
